Laboratory results: patent US20050208468A1, “Assays with primary cells” (priority 2003, published 2005)

Columns and labels:
[1] = system: HRPTE cells; experiment: cytotoxicity response (death index, live/dead assay) of HRPTE cells; assay type: cell-based, human; details: HRPTE cells in 96-well microplate wells or on coded carriers; various concentrations; FIG. 7
Procedure: This example describes how multiplexed analysis using coded carriers may be used to study the cytotoxicity response of HRPTE cells to staurosporine, in accordance with aspects of the present teachings; see FIG. 7.
Specifically, HRPTE cells are grown directly attached to wells of a standard 96-well microplate, or on coded carriers that optionally may be placed in wells of the microplate. A “death index” (e.g., the fraction of observed cells that are dead) may be used as a measure of cytotoxicity. The death index may be computed using any suitable mechanism, such as a fluorescence-based “live/dead assay.” In an exemplary version of the assay, live cells are labeled green using a membrane-permeant calcein AM, which is cleaved by esterases in live cells to yield cytoplasmic green fluorescence, and dead cells are labeled red using a membrane-impermeant ethidium homodimer-1, which passes through the compromised membranes of dead cells to label nucleic acids with red fluorescence. […] This reduction may be particularly significant in assays on primary cells, because primary cells typically are difficult to obtain and maintain.

[2] = system: PPARγ; experiment: PPARγ activity assay based on PEPCK expression, coded carriers in a shared fluid volume; assay type: cell-based, human; details: four donor samples in a shared fluid volume; four days; FIG. 12
Excerpt: This differentiation may be visualized readily and scored by staining lipid droplets that accumulate in the cytoplasm of the adipocytes during and/or after their differentiation. Furthermore, this adipocyte differentiation and/or activation of PPARγ may be followed by measuring the expression levels (RNA and/or protein) of PPARγ target genes (direct or indirect targets), such as PEPCK (phosphoenolpyruvate carboxykinsae) and/or FABP4 (fatty acid binding protein 4), among others.
Staining was via indirect immunofluorescence. Cells were counterstained with a nuclear dye (Hoechst) for data normalization, here and in other assays. […] Each sample of primary cells corresponds to pre-adipocytes isolated from visceral tissue (samples starting with the letter “V”) or isolated from subcutaneous tissue (samples starting with the letters “SC”) and were supplied by Cambrex. […] Each sample was connected to a distinct class of coded carriers (having a distinct code) to permit identification of the sample after combining the different classes of carrier and samples in a shared volume. […] Lipid accumulation and PEPCK expression were then measured with the samples still disposed in the same microplate wells. […]

[3] = system: primary human renal proximal tubule epithelial (HRPTE) cells; experiment: proliferative response (S-phase index) of primary HRPTE cells; assay type: cell-based; details: HRPTE cells in 96-well microplate wells or on coded carriers; various concentrations; FIG. 6
Procedure: This example describes how multiplexed analysis using coded carriers may be used to assay the effects of camptothecin on the proliferative response of primary human renal proximal tubule epithelial (HRPTE) cells, in accordance with aspects of the present teachings; see FIG. 6.
Specifically, HRPTE cells are grown directly in wells of a standard 96-well microplate, to three different cell densities (indicated as the stated number of cells), or on coded carriers that optionally may be placed in wells of the microplate. An “S-phase index” (e.g., the fraction of cells in the S-phase of the cell cycle) is used as a measure of cell proliferation. […] This reduction may be particularly significant in assays on primary cells, because primary cells typically are difficult to obtain and maintain.

## CN[C@@H]1C[C@H]2O[C@@](C)([C@@H]1OC)n1c3ccccc3c3c4c(c5c6ccccc6n2c5c31)C(=O)NC4 [staurosporine]
[1]
  death index (fraction of dead cells): generally increases with increasing staurosporine concentration

## COc1ccc2c(c1)c(CC(=O)O)c(C)n2C(=O)c1ccc(Cl)cc1 [Indomethacin, indomethacin]
[2]
  induction of PEPCK expression as a measure of PPARγ activity: relatively strong induction

## CC[C@@]1(O)C(=O)OCc2c1cc1n(c2=O)Cc2cc3ccccc3nc2-1 [camptothecin]
[3]
  S-phase index (measure of cell proliferation): S-phase index generally decreases with increasing camptothecin concentration
